Test results from patent publication US20150210624A1, “DEUTERATED 4-HYDROXYBUTYRIC ACID ANALOGS” (Concert Pharmaceuticals, Inc., priority 2012, published 2015).
Counter-ions that a name gives are not always drawn.

Key:
[1] = In vivo pharmacokinetic study in rats, IV and PO dosing (Example 6); settings: rat; for AUC(0-inf) / clearance / concentration at 2 hr / half-life / Vd / Cmax / Tmax / concentration at 4 hr / bioavailability: plasma; for Vd: read-out: Vz; for concentration at 4 hr: Cmin at 4 hr; for bioavailability: 200 mg/kg, PO vs IV AUC0-∞
Method: The pharmacokinetics of exemplary compounds was determined by comparison with 4-hydroxybutyric acid by dosing the compounds in rats according to the following study design and sampling procedure.
The results of the in vivo studies are disclosed in the following table (Table 2): […]

[2] = In vivo pharmacokinetic study in rats, oral dosing (Example 7); settings: rat, 200 mg/kg PO; for AUC(0-inf) / Cmax / Tmax / half-life: in vivo, mean; for AUC0-∞ value relative to 4-hydroxybutyric acid, sodium salt: sodium salts
Method: In a separate study, the pharmacokinetics of exemplary compounds IV-a, IV-b and IV-d was determined by comparison with 4-hydroxybutyric acid by dosing the compounds in rats orally. The study design was the same as for Example 6, except that sampling time points were as follows: predose, 5 min, 15 min, 30 min, 1 hour, 2 hours, 3 hours, 4 hours, and 5 hours (the 5 hour levels were not included in the for PK calculations). The results of the in vivo studies are disclosed in the following table (Table 3): […]

[3] = in humans; cited from earlier work
[4] = 200 mg/kg IV, mean, Cmin at 2 hr
[5] = 200 mg/kg IV, mean, calculated up to 2 hr
[6] = 200 mg/kg PO, mean, calculated up to 4 hr

SMILES | AUC(0-inf) ([1]; 200 mg/kg IV, mean) | clearance ([1]; 200 mg/kg IV, mean) | concentration at 2 hr [1, 4] | half-life [1, 5] | Vd ([1]; 200 mg/kg IV, mean) | AUC(0-inf) ([1]; 200 mg/kg PO, mean) | Cmax ([1]; 200 mg/kg PO, mean) | Tmax ([1]; 200 mg/kg PO, mean) | concentration at 4 hr ([1]; 200 mg/kg PO, mean) | half-life [1, 6] | bioavailability [1] | AUC0-∞ fold versus 4-hydroxybutyric acid, sodium salt ([1]; 200 mg/kg PO) | AUC(0-inf) [2] | Cmax [2] | Tmax [2] | half-life [2] | AUC0-∞ fold versus 4-hydroxybutyric acid, sodium salt [2] | Cmax fold versus 4-hydroxybutyric acid, sodium salt [2] | AUC0-∞ value relative to 4-hydroxybutyric acid, sodium salt [2] | further results
[2H]C([2H])(O)CC([2H])([2H])C(=O)[O-].[Na+] [IV-b, sodium salt, Sodium 2,2,4,4-d4-4-hydroxybutanoate] | 651 µg·h/mL | 5 mL/min/kg | 76 µg/mL | 37.8 min | 0.3 L/kg | 260 µg·h/mL | 151 µg/mL | 37.8 min | 5 µg/mL | 56.4 min | 40% | (+1.5X) | 407 µg·h/mL | 201 µg/mL | 90 min | 27.6 min | (2.5X) | (2.1X) | considerably increased | pharmacokinetic stability relative to 4-hydroxybutyric acid, sodium salt ([1]; from AUC0-∞ and t1/2 following IV administration): considerably increased
[2H]C([2H])(O)C([2H])([2H])C([2H])([2H])C(=O)O [IV-d, sodium salt] | – | – | – | – | – | – | – | – | – | – | – | – | 404 µg·h/mL | 188 µg/mL | 100 min | 27.6 min | (2.4X) | (2.0X) | considerably increased | –
[2H]C([2H])(CCO)C(=O)[O-].[Na+] [sodium 2,2-dideutero-4-hydroxybutanoate] | 476 µg·h/mL | 7 mL/min/kg | 19 µg/mL | 19.8 min | 0.2 L/kg | 193 µg·h/mL | 153 µg/mL | 37.8 min | 1 µg/mL | 35.4 min | 41% | (+1.1X) | – | – | – | – | – | – | – | –
O=C(O)CCCO [4-hydroxybutyric acid, sodium salt, sodium salt of 4-hydroxybutyric acid, reference compound] | 427 µg·h/mL | 8 mL/min/kg | – | 15.6 min | 0.2 L/kg | 170 µg·h/mL | 150 µg/mL | 30 min | 2 µg/mL | 36.6 min | 40% | – | 165 µg·h/mL | 94 µg/mL | 47.4 min | 60.6 min | – | – | – | Cmin [1, 4]: 8′ ug/mL; half life [3]: 30 to 60 min
[2H]C([2H])(O)CCC(=O)O [IV-a, sodium salt] | – | – | – | – | – | – | – | – | – | – | – | – | 335 µg·h/mL | 168 µg/mL | 70.2 min | 28.8 min | (2.0X) | (1.8X) | considerably increased | –
